Measurements taken from US7186519B2 (priority 2002, dated 2007).
“Also recorded” adds a separate entry of the source.

What was measured:
CT43 cells = assay type: cell-based, Chinese hamster
[1] = test system: CT43 cells expressing NPC1-GFP; assay: Fluorescence microscopy of BCθ binding in NPC1-GFP transfected cells; conditions: CT43 cells expressing NPC1-GFP exposed to U18666A
Experimental: To examine the effect of NPC1 expression on intracellular BCθ binding to cholesterol in CT43 cells, a construct comprising a GFP-tagged NPC1 protein (NPC1-GFP) was prepared and introduced into CT43 cells by transient transfection. […] After BCθ binding, cells containing NPC1-GFP were viewed in the red channel to detect the BCθ fluorescence signal or in the green channel to detect the NPC1-GFP fluorescence signal. The two fluorescence signals were then merged to examine their degree of overlap.
2-hydroxypropyl-β-cyclodextrin (SIGMA™-Aldrich, St. Louis, Mo.) was added to culture medium using well-known methods (Rothblat, et al. (1999) supra). U18666A was provided to the cells using standard conditions (Lange, et al. (2000) supra; Liscum and Faust (1989) supra).
Transient transfection of NPC1-GFP was performed in CT43 cells using FUGENE™ 6 according to manufacturer's instructions (Roche, Indianapolis, Ind.). Transfected cells were imaged within 2–3 days of transfection.
Cells were grown on glass coverslips in six-well plates and processed for fluorescence studies. […]

25RA cells = assay type: cell-based, Chinese hamster

For 2-hydroxypropyl-b-cyclodextrin [hpCD], the “Effect on BCθ fluorescence signal (intracellular cholesterol)” value (CT43 cells) was “both cell lines retained most of the BCθ fluorescence signals; also recorded: retained much of the signal”.

For `CCN(CC)CCO[C@H]1CC[C@@]2(C)C(=CC[C@@H]3[C@@H]2CC[C@]2(C)C(=O)CC[C@@H]32)C1` [U18666A], the “Effect on binding of BCθ to intracellular cholesterol” value [1] was “binding of BCθ to intracellular cholesterol persisted”.

`CCCCC[C@@H](O)[C@H]1C(=O)O[C@H](C)[C@@H](O)/C=C/C=C/C=C/C=C/C=C(\C)[C@@H](O)C[C@H](O)C[C@H](O)C[C@H](O)C[C@H](O)C[C@H](O)C[C@@H]1O` [filipin] was tested, and the “Binding to intracellular cholesterol” value (25RA cells) was “not in 25RA cells” and the “Binding to intracellular cholesterol” value (CT43 cells) was “able to bind intracellular cholesterol in CT43 cells”.
